Reference: US20230012570A1, “BICYCLIC COMPOUND USED AS SELECTIVE ANDROGEN RECEPTOR MODULATOR” (MEDSHINE DISCOVERY INC., priority 2019, published 2023)
Where two headings read alike, the source gives them in different places.

What was measured:
[1] = target: T1, CYP2C19 (Homo sapiens, UniProt P33261); assay: Human liver microsomal CYP inhibition experiment, CYP2C19; type: in vitro ADME
T1 construct: Mixed human liver microsomes (HLM) were purchased from Corning Inc; tissue Corning Inc. or XenoTech, LLC. or other suppliers; host or cells: pooled human liver microsomes
T1 sequence (P33261 whole entry): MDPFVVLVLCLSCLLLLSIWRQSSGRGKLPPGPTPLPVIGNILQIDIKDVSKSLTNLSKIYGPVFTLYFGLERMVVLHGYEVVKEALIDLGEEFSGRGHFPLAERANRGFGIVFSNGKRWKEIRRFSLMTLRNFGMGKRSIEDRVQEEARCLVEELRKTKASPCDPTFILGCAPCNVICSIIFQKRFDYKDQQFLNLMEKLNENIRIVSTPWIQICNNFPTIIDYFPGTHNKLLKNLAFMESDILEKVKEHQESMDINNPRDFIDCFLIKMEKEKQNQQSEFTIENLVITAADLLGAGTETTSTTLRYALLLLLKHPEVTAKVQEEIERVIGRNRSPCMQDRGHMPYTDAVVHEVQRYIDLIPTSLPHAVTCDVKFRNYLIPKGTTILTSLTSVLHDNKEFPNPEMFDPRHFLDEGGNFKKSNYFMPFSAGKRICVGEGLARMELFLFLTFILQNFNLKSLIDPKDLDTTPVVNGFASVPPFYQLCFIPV
Method: Experiment Embodiment 4: Human Liver Microsomal CYP Inhibition Experiment
The inhibitory effects of the test compound 3A and VK5211 on the activities of human liver microsomal cytochrome P450 isozymes (CYP1A2, CYP2C9, CYP2C19, CYP2D6 and CYP3A4) were determined.
Mixed human liver microsomes (HLM) were purchased from Corning Inc. (Steuben, New York, USA) or XenoTech, LLC. (Lenexa, Kans., USA) or other suppliers, and were stored at a temperature below −60° C. before use.
First, the test compound (10.0 mM) was gradient diluted to prepare working solution (100×final concentration), and the concentrations of the working solution were: 5.00, 1.50, 0.500, 0.150, 0.0500, 0.0150, 0.00500 mM, and a working solution of each positive inhibitor of P450 isozymes (CYP1A2, CYP2C9, CYP2C19, CYP2D6, and CYP3A4) and a specific substrate mixture thereof (5 in 1) were prepared at the same time; human liver microsomes stored in a refrigerator at a temperature lower than −60° C. were put on ice to thaw, and when all the human liver microsomes were dissolved, the microsomes were diluted with potassium phosphate buffer (PB) to prepare a working solution of a certain concentration (0.253 mg/mL). […] The concentration of metabolites produced by the probe substrate in the sample was determined by liquid chromatography-tandem mass spectrometry (LC-MS/MS) method. […]

[2] = Pharmacokinetic test in male SD rats, intravenous and intragastric administration, plasma LC-MS/MS; type: in vivo; conditions: rat; for AUC(0-t): read-out: Curve area (0-t) AUC0-last; for half-life: read-out: Half-life T1/2 (converted)
From the text: Experimental Embodiment 2: Pharmacokinetic Test of the Compounds of the Present Disclosure
Male SD rats were used as test animals, and LC-MS/MS method was used to determine the drug concentrations in plasma of rats at different time after intravenous and intragastric administration of compound 1A, compound 3A and compound 8A. To study the pharmacokinetic behavior of the compounds in rats and to evaluate their pharmacokinetic characteristics.
2.1 Test Drugs: Compound 1A, Compound 3A and Compound 8A
2.2 Test animals: 12 healthy adult male SD rats, divided into 6 groups with 2 rats in each group. The animal was purchased from Shanghai Sippr-BK laboratory animal Co. Ltd., and the animal production license number was SOCK (Shanghai) 2013-0016.
An appropriate amount of sample was weighed, and appropriate amounts of DMSO, polyethylene glycol-15 hydroxystearate and water were added in turn according to the volume ratio of 10:10:80, and the clarified state of 0.2 mg/mL was reached after stirring and sonication for intravenous administration.
An appropriate amount of sample was weighed and dissolved in 5% Tween 80+90% polyethylene glycol 400+5% polyvinylpyrrolidone K30 solution, and the clarified state of 0.5 mg/mL was reached after stirring and sonication for intragastric administration.
12 male SD rats were divided into 6 groups, and after fasting overnight, groups 1-3 were administered intravenously with a volume of 5 mL/kg; groups 4-6 were administered by gavage with a volume of 10 mL/kg.
After compound 1A, compound 3A and compound 8A were intravenously administered to SD rats, 40 μL of blood was collected at 0.0833, 0.25, 0.5, 1, 2, 4, 8 and 24 hours, respectively, and placed in a test tube containing 2 μL of EDTA-K2. After compound 1A and compound 3A were administered by gavage, 40 μL of blood was collected at 0.25, 0.5, 1, 2, 4, 8 and 24 hours, respectively, and placed in a test tube containing 2 μL of EDTA-K2. The tubes were centrifuged at 4000 rpm for 15 minutes to separate the plasma and stored at −60° C. Animals were allowed to eat 2 hours after administration.
The content of the test compounds in the plasma of rats after intravenous and intragastric administration was determined by LC-MS/MS method. The linear range of the method was 2.00-6000 nmol/L; plasma samples were analyzed after acetonitrile precipitation protein treatment.

[3] = intravenous administration, dose 1.1 (1A), 0.69 (3A), 0.716 (8A) mg/kg
[4] = po, intragastric administration, dose 4.92 (1A), 4.2 (3A), 4.59 (8A) mg/kg

N#Cc1ccc(N2CC3CC3C2C(O)C(F)(F)F)cc1Cl (single isomer, unassigned) [Compound 3A]
IC50 [1]: 12.1 µM
Vd ([2]; intravenous administration, dose 1.1 (1A), 0.69 (3A), 0.716 (8A) mg/kg, read-out: Apparent volume of distribution Vdss): 1.83 L/kg
clearance ([2]; intravenous administration, dose 1.1 (1A), 0.69 (3A), 0.716 (8A) mg/kg, read-out: Clearance rate Cl): 28.6 mL/min/kg
AUC(0-inf) ([2]; intravenous administration, dose 1.1 (1A), 0.69 (3A), 0.716 (8A) mg/kg, read-out: Curve area (0-inf) AUC0-inf): 1.29 µM·h
AUC(0-t) [2, 3]: 1.28 µM·h
half-life [2, 3]: 1.35 h
bioavailability ([2]; oral, intragastric vs intravenous administration, read-out: Bioavailability F): 16%
Cmax ([2]; po, intragastric administration, dose 4.92 (1A), 4.2 (3A), 4.59 (8A) mg/kg, read-out: Blood drug concentration Cmax): 262 nM
AUC(0-t) [2, 4]: 1.25 µM·h
half-life [2, 4]: 1.8 h
Tmax ([2]; po, intragastric administration, dose 4.92 (1A), 4.2 (3A), 4.59 (8A) mg/kg, read-out: Peak time Tmax): 3 h
